From the supplement of paper PMC10307832

Experiments:
Assay in all cases: relative viability (nuclei count vs DMSO), 5 days (fraction); higher = more cells survive
Cabozantinib + Foretinib = compound: COc1cc2nccc(Oc3ccc(NC(=O)C4(C(=O)Nc5ccc(F)cc5)CC4)cc3)c2cc1OC [Cabozantinib] + COc1cc2c(Oc3ccc(NC(=O)C4(C(=O)Nc5ccc(F)cc5)CC4)cc3F)ccnc2cc1OCCCN1CCOCC1 [Foretinib] (partner 0.25 µM)
Procedure, shortened: (§1)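 Lung cancer cell lines, seeded in 1536-well plates, were treated the following day by pin tool with a single drug or with five library-drug doses (not always all listed) in √10 steps on top of a fixed anchor-drug dose. Cells were fixed and nuclei stained in one step after 5 days, and nuclei were counted. Relative viability is the nuclei count for treated wells divided by that for vehicle wells, reported as medians of duplicate plates.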

[1] = compound: COc1cc2nccc(Oc3ccc(NC(=O)C4(C(=O)Nc5ccc(F)cc5)CC4)cc3)c2cc1OC [Cabozantinib] + CC(=O)c1c(C)c2cnc(Nc3ccc(N4CCNCC4)cn3)nc2n(C2CCCC2)c1=O [Palbociclib] (partner 0.5 µM)
Procedure, shortened: as §1

Kobe2602 + Olaparib = compound: C1=CC(=CC=C1NC(=S)NNC2=C(C=C(C=C2[N+](=O)[O-])C(F)(F)F)[N+](=O)[O-])F [Kobe2602] + O=C(c1cc(Cc2n[nH]c(=O)c3ccccc23)ccc1F)N1CCN(C(=O)C2CC2)CC1 [Olaparib] (partner 8 µM)
Procedure, shortened: as §1

Zosuquidar + Decitabine = compound: O[C@@H](COc1cccc2ncccc12)CN1CCN([C@@H]2c3ccccc3[C@@H]3[C@H](c4ccccc42)C3(F)F)CC1 [Zosuquidar] + Nc1ncn([C@H]2C[C@H](O)[C@@H](CO)O2)c(=O)n1 [Decitabine] (partner 2 µM)
Procedure, shortened: as §1

| Cell Line | relative viability (Cabozantinib + Foretinib; first compound 0.02 µM) | relative viability (Cabozantinib + Foretinib; first compound 0.06325 µM) | relative viability (Cabozantinib + Foretinib; first compound 0.2 µM) | relative viability (Cabozantinib + Foretinib; first compound 0.6325 µM) | relative viability (Cabozantinib + Foretinib; first compound 2 µM) | relative viability ([1]; first compound 0.02 µM) | relative viability ([1]; first compound 0.06325 µM) | relative viability ([1]; first compound 0.2 µM) | relative viability ([1]; first compound 0.6325 µM) | relative viability ([1]; first compound 2 µM) | relative viability (Kobe2602 + Olaparib; first compound 0.2 µM) | relative viability (Kobe2602 + Olaparib; first compound 0.6325 µM) | relative viability (Kobe2602 + Olaparib; first compound 2 µM) | relative viability (Kobe2602 + Olaparib; first compound 6.325 µM) | relative viability (Kobe2602 + Olaparib; first compound 20 µM) | relative viability (Zosuquidar + Decitabine; first compound 0.01 µM) | relative viability (Zosuquidar + Decitabine; first compound 0.03162 µM) | relative viability (Zosuquidar + Decitabine; first compound 0.1 µM) | relative viability (Zosuquidar + Decitabine; first compound 0.3162 µM) | relative viability (Zosuquidar + Decitabine; first compound 1 µM) |
| --- | --- | --- | --- | --- | --- | --- | --- | --- | --- | --- | --- | --- | --- | --- | --- | --- | --- | --- | --- | --- |
| HARA | 1.04 | 1.02 | 0.711 | 0.949 | 0.691 | 0.323 | 0.29 | 0.218 | 0.344 | 0.263 | 0.868 | 1.03 | 0.914 | 0.958 | 0.78 | 0.474 | 0.542 | 0.607 | 0.492 | 0.629 |
| HCC-15 | 1.26 | 1.13 | 1.06 | 1.04 | 1.07 | 0.824 | 0.797 | 0.716 | 0.718 | 0.672 | 0.691 | 0.727 | 0.609 | 0.742 | 0.837 | 0.64 | 0.575 | 0.599 | 0.711 | 0.635 |
| HCC-44 |  |  |  |  |  | 1.04 | 1.05 | 0.998 | 0.977 | 1.03 | 0.965 | 0.983 | 0.955 | 0.951 | 0.898 | 0.981 | 0.961 | 1 | 0.934 | 0.919 |
| HCC-78 |  | 0.684 | 0.549 | 0.541 | 0.518 |  | 0.444 | 0.413 | 0.467 | 0.435 | 0.852 | 0.809 | 0.904 | 0.591 | 0.907 | 0.75 |  |  | 0.804 | 0.637 |
| HCC-366 | 0.941 | 0.948 | 0.95 | 0.905 | 0.888 | 0.491 | 0.503 | 0.399 | 0.364 | 0.451 | 0.368 | 0.345 | 0.32 | 0.352 | 0.365 | 0.322 | 0.291 | 0.429 | 0.515 | 0.277 |
| HCC-827 | 1.05 | 1.05 |  | 1.1 | 0.988 | 0.415 | 0.535 |  | 0.577 | 0.399 | 0.681 | 0.678 | 0.683 | 0.664 | 0.725 | 0.302 | 0.367 | 0.266 | 0.307 | 0.295 |
| HOP-62 | 1.17 | 1.19 | 1.06 | 1 | 1.24 | 0.503 | 0.488 | 0.416 | 0.506 | 0.491 | 0.512 | 0.523 | 0.476 | 0.316 | 0.472 | 0.215 | 0.223 | 0.25 | 0.203 | 0.21 |
| IA-LM | 1.15 | 1.15 | 1.22 | 1.23 | 1.24 |  |  |  |  |  | 0.851 | 0.718 | 0.773 | 0.894 | 0.862 |  |  |  |  |  |
| LC-2-ad |  | 1.03 | 0.889 | 1.02 | 0.89 | 0.569 | 0.569 | 0.472 | 0.367 | 0.341 | 0.693 | 0.683 | 0.708 | 0.736 | 0.682 | 0.878 | 0.922 | 0.876 | 0.725 | 0.776 |
| NCI-H522 |  |  |  |  |  | 0.885 | 0.966 | 1.06 | 1.12 | 0.905 | 0.66 | 0.662 | 0.646 | 0.641 | 0.598 | 0.681 | 0.624 | 0.643 | 0.618 | 0.657 |
| NCI-H596 | 0.89 | 1.09 | 0.9 | 0.906 | 0.777 |  |  |  |  |  | 0.758 | 0.661 | 0.718 | 0.718 | 0.799 | 1.02 | 0.961 | 1.03 | 1.13 | 0.879 |
| NCI-H1299 | 1.12 | 1.12 | 1.16 | 1.11 | 1.13 |  |  |  |  |  | 0.996 | 1.02 | 0.949 | 1.02 | 0.985 |  |  |  |  |  |
| NCI-H1563 | 1.02 | 0.907 | 0.953 | 0.912 | 0.893 |  |  |  |  |  |  |  |  |  |  |  |  |  |  |  |
| NCI-H1623 | 0.783 | 1.05 | 0.695 | 0.828 | 0.874 |  |  |  |  |  |  |  |  |  |  |  |  |  |  |  |
| NCI-H1648 |  |  |  |  |  | 0.27 | 0.259 |  | 0.281 | 0.299 | 0.62 | 0.929 | 0.493 | 0.772 | 0.872 | 0.427 | 0.612 | 0.434 | 0.455 | 0.489 |
| NCI-H1703 | 0.305 | 0.399 | 0.356 | 0.427 | 0.37 |  |  |  |  |  | 0.454 | 0.364 | 0.4 | 0.483 | 0.431 |  |  |  |  |  |
| NCI-H1792 |  |  |  |  |  |  | 0.707 | 0.668 | 0.679 | 0.579 | 0.372 | 0.556 | 0.398 | 0.253 | 0.566 | 0.545 | 0.532 | 0.603 | 0.584 | 0.556 |
| NCI-H2228 | 1.08 | 1.26 | 0.932 | 0.794 | 0.672 | 0.588 | 1.08 | 0.802 | 0.941 | 0.837 | 0.738 | 0.576 | 0.689 | 0.593 | 0.629 |  |  |  |  |  |
